Test results taken from patent US20230391772A1, “METHODS AND COMPOSITIONS FOR TARGETED PROTEIN DEGRADATION” (Ranok Therapeutics (Hangzhou) Co. Ltd., priority 2020, published 2023).
pEC50, pIC50: −log10 of the molar value.

How the values were obtained:
KRAS(G12C) = KRAS(G12C) (Homo sapiens, UniProt P01116, G12C); test: KRAS(G12C)/SOS1 homogeneous time-resolved fluorescence (HTRF) assay; parameters: purchased Cisbio 63ADK000CB16PEG; settings: absence of GTP, 4° C. for 3 hr, read-out: KRAS (G12C) binding
In short: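 Three-hour incubation at 4 °C of 3-fold compound dilutions (lowest 1.02 nM) with KRAS(G12C), SOS1 and detection reagents, GTP absent. Disruption of the KRAS(G12C)/SOS1 complex detected by time-resolved fluorescence.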

[1] = test system: MIA PaCa-2 human pancreatic carcinoma; test: MIA PaCa-2 CCK-8 proliferation assay; assay type: cell-based; settings: Homo sapiens, MIA PaCa-2, 72 h, MIA PaCa-2 cells
In short: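 Proliferation of mutant-KRAS(G12C) cells (2 copies in MIA PaCa-2, single copy in NCI-H358/NCI-H23) measured with CCK-8 after treatment across 20 μM–1.02 nM; inhibition expressed relative to vehicle-treated wells after subtracting no-cell background.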

HSP90a protein = molecular target: T1, HSP90a protein (Homo sapiens, UniProt P07900); test: HSP90α-binding fluorescent polarization (FP) assay, BODIPY-labeled RNK04010 probe; settings: FP competition with RNK04010 (BODIPY-labeled), 5 nM, 300 min at 25° C.
T1 construct: purchased BPS Bioscience 50298
In short: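 Compounds (20 μM down to 5.2 nM, 2.5-fold steps) compete with a 5 nM fluorescent tracer for N-terminal HSP90a, measured by fluorescence polarization. With FITC-geldanamycin, plates sit 120 min at 25 °C. With BODIPY-RNK04010, they sit 300 min at 25 °C.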

Chain of KRAS(G12C) (P01116 1-188 isoform P01116-2 G12C): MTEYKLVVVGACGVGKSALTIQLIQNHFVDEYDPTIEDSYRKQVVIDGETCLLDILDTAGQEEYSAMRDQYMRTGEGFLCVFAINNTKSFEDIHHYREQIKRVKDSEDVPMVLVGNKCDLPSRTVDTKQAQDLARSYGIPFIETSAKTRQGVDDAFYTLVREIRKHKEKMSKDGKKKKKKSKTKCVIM

| pIC50 (KRAS(G12C)) | pEC50 [1] | pIC50 (HSP90a protein) | SMILES |
| --- | --- | --- | --- |
| 6.00 to 7.00 | 6.00 to 7.00 | > 7.00 | C=CC(=O)N1CCN(c2nc(OC[C@@H]3C[C@H](N(C)CCC(=O)N4CCN(Cc5ccc(-n6c(C(=O)NCC(F)(F)F)nnc6-c6cc(C(C)C)c(O)cc6O)cc5)CC4)CN3C)nc3c2CCN(c2cccc4cccc(Cl)c24)C3)C[C@@H]1CC#N [Compound 337, 4-(4-{[4-(3-{[(3S,5S)-5-({[7-(8-chloronaphthalen-1-yl)-4-[(3S)-3-(cyanomethyl)-4-(prop-2-enoyl)piperazin-1-yl]-5H,6H,8H-pyrido[3,4-d]pyrimidin-2-yl]oxy}methyl)-1-methylpyrrolidin-3-yl](methyl)amino}propanoyl)piperazin-1-yl]methyl}phen-yl)-5-(2,4-dihydroxy-5-isopropylphenyl)-N-(2,2,2-trifluoroethyl)-1,2,4-triazole-3-carboxamide] |
| > 7.00 | 6.00 to 7.00 | > 7.00 | C=CC(=O)N1CCN(c2nc(OC[C@@H]3C[C@H](NC(=O)C4CCN(C(=O)C5CCN(Cc6ccc(-n7c(O)nnc7-c7cc(C(C)C)c(O)cc7O)cc6)CC5)CC4)CN3C)nc3c2CCN(c2cccc4cccc(Cl)c24)C3)C[C@@H]1CC#N [Compound 309, N-[(3S,5S)-5-({[7-(8-chloronaphthalen-1-yl)-4-[(3S)-3-(cyanomethyl)-4-(prop-2-enoyl)piperazin-1-yl]-5H,6H,8H-pyrido[3,4-d]pyrimidin-2-yl]oxy}methyl)-1-methylpyrrolidin-3-yl]-1-[1-({4-[3-(2,4-dihydroxy-5-isopropylphenyl)-5-hydroxy-1,2,4-triazol-4-yl]phenyl}methyl)piperidine-4-carbonyl]piperidine-4-carboxamide] |
| > 7.00 | 6.00 to 7.00 | > 7.00 | C=CC(=O)N1CCN(c2nc(OC[C@@H]3C[C@H](C(=O)N4CCN(CCNC(=O)c5nnc(-c6cc(C(C)C)c(O)cc6O)n5-c5ccccc5)CC4)CN3C)nc3c2CCN(c2cccc4cccc(Cl)c24)C3)C[C@@H]1CC#N [Compound 343, N-(2-{4-[(3S,5S)-5-({[7-(8-chloronaphthalen-1-yl)-4-[(3S)-3-(cyanomethyl)-4-(pr-op-2-enoyl)piperazin-1-yl]-5H,6H,8H-pyrido[3,4-d]pyrimidin-2-yl]oxy}methyl)-1-methylpyrrolidine-3-carbonyl]piperazin-1-yl}ethyl)-5-(2,4-dihydroxy-5-isopropylphenyl)-4-phenyl-1,2,4-triazole-3-carboxamide] |
| 6.00 to 7.00 | < 6.00 | > 7.00 | C=CC(=O)N1CCN(c2nc(OCCN3CCC(C(=O)N4CCC(Cc5ccc(-n6c(O)nnc6-c6cc(C(C)C)c(O)cc6O)cc5)CC4)CC3)nc3c2CCN(c2cccc4cccc(Cl)c24)C3)C[C@@H]1CC#N [Compound 211, (S)-2-(1-acryloyl-4-(7-(8-chloronaphthalen-1-yl)-2-(2-(4-(4-(4-(3-(2,4-dihydroxy-5-isopropylphenyl)-5-hydroxy-4H-1,2,4-triazol-4-yl)benzyl)piperidine-1-carbonyl)piperidin-1-yl)ethoxy)-5,6,7,8-tetrahydropyrido[3,4-d]pyrimidin-4-yl)piperazin-2-yl)acetonitrile] |
| > 7.00 | > 7.00 | > 7.00 | C=CC(=O)N1CCN(c2nc(OC[C@@H]3C[C@@H](OCC(=O)N4CCC(CN5CCN(Cc6ccc(-n7c(C(=O)NCC(F)(F)F)nnc7-c7cc(CC)c(O)cc7O)cc6)CC5)CC4)CN3C)nc3c2CCN(c2cccc4cccc(Cl)c24)C3)C[C@@H]1CC#N [Compound 300, 4-(4-((4-((1-(2-(((3R,5S)-5-(((4-((S)-4-acryloyl-3-(cyanomethyl)piperazin-1-yl)-7-(8-chloronaphthalen-1-yl)-5,6,7,8-tetrahydropyrido[3,4-d]pyrimidin-2-yl)oxy)methyl)-1-methylpyrrolidin-3-yl)oxy)acetyl)piperidin-4-yl)methyl)piperazin-1-yl)methyl)phenyl)-5-(5-ethyl-2,4-dihydroxyphenyl)-N-(2,2,2-trifluoroethyl)-4H-1,2,4-triazole-3-carboxamide] |
